Values joined by “and” are separate entries in the source; they are usually repeats but may differ in a detail not shown here. Equal entries are not always repeated. Inconclusive results and toxic doses are left out. Cut-off read from the data, not from the text of the source: active = T/C of 150% or more; inactive = T/C below 125%.
Tested on: L1210 leukemia ip in BDF1 mice, survival T/C
Experiment: NCI In Vivo Anticancer Drug Screen. Data for tumor model L1210 Leukemia (intraperitoneal) in B6D2F1 (BDF1) mice
Conditions: endpoint: mean survival time, higher = longer survival
Outline: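 Mice bearing the transplanted tumor received compound or vehicle. Survival of the treated group was divided by that of the vehicle-treated control group to give the ratio.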

[1] = dose: 100.0 mg/kg/injection, schedule: Q01DX009 (ip), vehicle: Klucel (hydroxypropylcellulose) (HPC)
[2] = dose: 100.0 mg/kg/injection, schedule: Q04DX003 (ip), vehicle: Klucel (hydroxypropylcellulose) (HPC)
[3] = dose: 200.0 mg/kg/injection, schedule: Q01DX009 (ip), vehicle: Klucel (hydroxypropylcellulose) (HPC)
[4] = dose: 200.0 mg/kg/injection, schedule: Q04DX003 (ip), vehicle: Klucel (hydroxypropylcellulose) (HPC)
[5] = dose: 400.0 mg/kg/injection, schedule: Q01DX009 (ip), vehicle: Klucel (hydroxypropylcellulose) (HPC)
[6] = dose: 400.0 mg/kg/injection, schedule: Q04DX003 (ip), vehicle: Klucel (hydroxypropylcellulose) (HPC)
[7] = dose: 50.0 mg/kg/injection, schedule: Q04DX002 (ip), vehicle: Klucel (hydroxypropylcellulose) (HPC)
[8] = dose: 100.0 mg/kg/injection, schedule: Q04DX002 (ip), vehicle: Klucel (hydroxypropylcellulose) (HPC)
[9] = dose: 100.0 mg/kg/injection, schedule: Q01DX001 (ip), vehicle: carboxymethylcellulose (CMC)
[10] = dose: 200.0 mg/kg/injection, schedule: Q01DX001 (ip), vehicle: carboxymethylcellulose (CMC)
[11] = dose: 400.0 mg/kg/injection, schedule: Q01DX001 (ip), vehicle: carboxymethylcellulose (CMC)
[12] = dose: 100.0 mg/kg/injection, schedule: Q04DX003 (ip), vehicle: saline with Tween-80
[13] = dose: 200.0 mg/kg/injection, schedule: Q04DX003 (ip), vehicle: saline with Tween-80
[14] = dose: 400.0 mg/kg/injection, schedule: Q04DX003 (ip), vehicle: saline with Tween-80
[15] = dose: 100.0 mg/kg/injection, schedule: Q04DX002 (ip), vehicle: saline

Measured: T/C

CCCCN=C(NCCCC)c1ccc(NC(=O)c2ccc(C(=O)Nc3ccc(C(=NCCCC)NCCCC)cc3)cc2)cc1
inactive: dose: 0.12 mg/kg/injection, schedule: Q01DX015 (ip), vehicle: methylcellulose (MC) 94 % of control | dose: 0.25 mg/kg/injection, schedule: Q01DX015 (ip), vehicle: methylcellulose (MC) 94 % of control | dose: 0.5 mg/kg/injection, schedule: Q01DX015 (ip), vehicle: methylcellulose (MC) 90 % of control | dose: 1.0 mg/kg/injection, schedule: Q01DX015 (ip), vehicle: methylcellulose (MC) 102 % of control | dose: 2.0 mg/kg/injection, schedule: Q01DX015 (ip), vehicle: methylcellulose (MC) 108 % of control | dose: 4.0 mg/kg/injection, schedule: Q01DX015 (ip), vehicle: methylcellulose (MC) 110 % of control | dose: 8.0 mg/kg/injection, schedule: Q01DX015 (ip), vehicle: methylcellulose (MC) 98 % of control

CCCCS(=O)(=O)F
inactive: dose: 100.0 mg/kg/injection, schedule: Q04DX002 (ip), vehicle: saline with Tween-80 93 % of control

Nc1ccc(N)nc1
inactive: [1] 98 % of control | [2] 95 % of control | [3] 98 % of control | [4] 93 % of control | [5] 94 % of control | [6] 98 % of control

CCOC(=O)c1c[nH]c2cc(Cl)ccc2c1=O
inactive: [1] 97 % of control | [2] 98 % of control | [3] 100 % of control | [4] 102 % of control | [5] 98 % of control | [6] 96 % of control

CCOC(=O)C1C(=O)Nc2c(ccc3ccccc23)N1C(C)=O (configuration not stated)
inactive: [7] 96 % of control | [8] 93 % of control | dose: 200.0 mg/kg/injection, schedule: Q04DX002 (ip), vehicle: Klucel (hydroxypropylcellulose) (HPC) 93 % of control

CCc1oc2cc([N+](=O)[O-])ccc2c1C#N
inactive: dose: 25.0 mg/kg/injection, schedule: Q04DX002 (ip), vehicle: Klucel (hydroxypropylcellulose) (HPC) 86 % of control | [7] 89 % of control | [1] 97 % of control | [8] 93 % of control | [3] 101 % of control | [5] 97 % of control

COc1cc(O)c2ccccc2c1OC(C)=O
inactive: dose: 50.0 mg/kg/injection, schedule: Q01DX009 (ip), vehicle: Klucel (hydroxypropylcellulose) (HPC) 101 % of control | [1] 90 % of control | [3] 93 % of control

CN(C)S(=O)(=O)c1ccc(NC(=O)OC2CCCC2)cc1
inactive: [9] 93 % of control | [10] 98 % of control | [11] 98 % of control

CC(C(O)c1ccccc1)[N+](=O)[O-] (configuration not stated)
inactive: [12] 100 % of control | [13] 95 % of control | [14] 101 % of control

N#CCCN(C(=O)Nc1cccc(C(F)(F)F)c1)C1CCCCC1
inactive: [9] 100 % of control and 103 % of control | dose: 100.0 mg/kg/injection, schedule: Q01DX009 (ip), vehicle: carboxymethylcellulose (CMC) 90 % of control | dose: 100.0 mg/kg/injection, schedule: Q04DX002 (ip), vehicle: carboxymethylcellulose (CMC) 93 % of control and 89 % of control | dose: 100.0 mg/kg/injection, schedule: Q04DX003 (ip), vehicle: carboxymethylcellulose (CMC) 100 % of control and 103 % of control | [10] 96 % of control and 100 % of control | dose: 200.0 mg/kg/injection, schedule: Q01DX009 (ip), vehicle: carboxymethylcellulose (CMC) 90 % of control | dose: 200.0 mg/kg/injection, schedule: Q04DX002 (ip), vehicle: carboxymethylcellulose (CMC) 93 % of control | dose: 200.0 mg/kg/injection, schedule: Q04DX003 (ip), vehicle: carboxymethylcellulose (CMC) 93 % of control | [11] 92 % of control and 102 % of control | dose: 400.0 mg/kg/injection, schedule: Q04DX002 (ip), vehicle: carboxymethylcellulose (CMC) 86 % of control | dose: 400.0 mg/kg/injection, schedule: Q04DX003 (ip), vehicle: carboxymethylcellulose (CMC) 95 % of control

CC(C)CNNCC(C)C
inactive: dose: 75.0 mg/kg/injection, schedule: Q01DX001 (ip), vehicle: other 103 % of control

CCCCNC(=O)C(F)(F)F
inactive: dose: 100.0 mg/kg/injection, schedule: Q01DX001 (ip), vehicle: other 100 % of control | dose: 200.0 mg/kg/injection, schedule: Q01DX001 (ip), vehicle: other 98 % of control | dose: 400.0 mg/kg/injection, schedule: Q01DX001 (ip), vehicle: other 98 % of control

CCN(CC)C(=O)Cn1cc(F)c(NC(C)=O)nc1=O
inactive: dose: 100.0 mg/kg/injection, schedule: Q04DX003 (ip), vehicle: saline 97 % of control | dose: 200.0 mg/kg/injection, schedule: Q04DX003 (ip), vehicle: saline 101 % of control | dose: 400.0 mg/kg/injection, schedule: Q04DX003 (ip), vehicle: saline 101 % of control

OCC1OC(n2cnc3c(NCCNc4ncnc5c4ncn5C4OC(CO)C(O)C4O)ncnc32)C(O)C1O (configuration not stated)
inactive: dose: 50.0 mg/kg/injection, schedule: Q04DX002 (ip), vehicle: saline 102 % of control | [15] 110 % of control

CC1(C)C/C(=C\c2cccc(Br)c2)C(=O)c2ccccc21
inactive: [1] 104 % of control | [2] 98 % of control | [3] 98 % of control | [4] 106 % of control | [5] 103 % of control | [6] 101 % of control

COc1ccccc1OCCN1Cc2ccccc2C1
inactive: [12] 96 % of control | [13] 92 % of control

O=C(NC(O)C(Cl)(Cl)Cl)c1ccccc1O (configuration not stated)
inactive: dose: 100.0 mg/kg/injection, schedule: Q01DX009 (ip), vehicle: saline with Tween-80 95 % of control | [12] 93 % of control | dose: 200.0 mg/kg/injection, schedule: Q01DX009 (ip), vehicle: saline with Tween-80 103 % of control | [13] 95 % of control | [14] 95 % of control

CC(S)c1ccc2c(c1)Cc1ccccc1-2 (configuration not stated)
inactive: [9] 101 % of control | [10] 101 % of control | [11] 104 % of control

O=c1[nH]c(=O)c2c3c(sc2[nH]1)CCCC3
inactive: dose: 100.0 mg/kg/injection, schedule: Q01DX001 (ip), vehicle: saline sonified 91 % of control | dose: 200.0 mg/kg/injection, schedule: Q01DX001 (ip), vehicle: saline sonified 91 % of control | dose: 400.0 mg/kg/injection, schedule: Q01DX001 (ip), vehicle: saline sonified 103 % of control

CCOC(=O)CSc1c([N+](=O)[O-])c(C)nn1C
inactive: dose: 25.0 mg/kg/injection, schedule: Q01DX009 (ip), vehicle: water 101 % of control | dose: 50.0 mg/kg/injection, schedule: Q01DX009 (ip), vehicle: water 97 % of control | dose: 100.0 mg/kg/injection, schedule: Q01DX009 (ip), vehicle: water 105 % of control | dose: 200.0 mg/kg/injection, schedule: Q01DX009 (ip), vehicle: water 97 % of control | dose: 400.0 mg/kg/injection, schedule: Q01DX009 (ip), vehicle: water 92 % of control

CCOP(=O)(OCC)C(=O)C1C(C=C(C)C)C1(C)C (configuration not stated)
inactive: [15] 123 % of control | dose: 200.0 mg/kg/injection, schedule: Q04DX002 (ip), vehicle: saline 104 % of control | dose: 400.0 mg/kg/injection, schedule: Q04DX002 (ip), vehicle: saline 115 % of control

c1c[nH]c(C2Nc3ccccc3S2)c1 (configuration not stated)
inactive: dose: 100.0 mg/kg/injection, schedule: Q01DX001 (ip), vehicle: saline 93 % of control | dose: 200.0 mg/kg/injection, schedule: Q01DX001 (ip), vehicle: saline 95 % of control

Source: PubChem BioAssay AID248 (DTP/NCI, 2004)
